Activity calls are given as the source filed them. The calls are words filed in the database; no cut-off is given here.
Experiments:
Format in all cases: functional, cell-based
HT-29 [1] = experiment: Cytotoxicity against human HT-29 cells at 10 to 100 uM after 48 hrs by MTT assay
HCT-116 = experiment: Cytotoxicity against human HCT116 cells at 10 to 100 uM after 48 hrs by MTT assay
A549 [2] = experiment: Cytotoxicity against human A549 cells at 10 to 100 uM after 48 hrs by MTT assay
MCF7 [3] = experiment: Cytotoxicity against human MCF7 cells at 10 to 100 uM after 48 hrs by MTT assay
HT-29 [4] = experiment: Cytotoxicity against human HT-29 cells after 48 hrs by MTT assay
A549 [5] = experiment: Cytotoxicity against human A549 cells after 48 hrs by MTT assay
MCF7 [6] = experiment: Cytotoxicity against human MCF7 cells after 48 hrs by MTT assay

COc1cc(C(=O)C(CO)c2ccc(O)c(OC)c2)ccc1O (centres undefined)
Activity (HT-29 [1]): Active
Activity (HCT-116): Active
Activity (A549 [2]): Active
Activity (MCF7 [3]): Active

O=Cc1ccc(O)cc1
Activity (HT-29 [1]): Active
Activity (HCT-116): Active
Activity (A549 [2]): Active
Activity (MCF7 [3]): Active

COc1cc([C@H]2Oc3c(OC)cc(/C=C/C=O)cc3[C@@H]2CO)ccc1O
Activity (HT-29 [1]): Active
Activity (HCT-116): Active
Activity (A549 [2]): Active
Activity (MCF7 [3]): Active
Activity (HT-29 [4]): Dose-dependent effect
Activity (A549 [5]): Dose-dependent effect
Activity (MCF7 [6]): Dose-dependent effect

O=C/C=C\c1ccc(O)cc1
Activity (HT-29 [1]): Active
Activity (HCT-116): Active
Activity (A549 [2]): Active
Activity (MCF7 [3]): Active

COc1cc(/C=C\C=O)ccc1O
Activity (HT-29 [1]): Active
Activity (HCT-116): Active
Activity (A549 [2]): Active
Activity (MCF7 [3]): Active
Activity (HT-29 [4]): Dose-dependent effect
Activity (A549 [5]): Dose-dependent effect
Activity (MCF7 [6]): Dose-dependent effect

COc1cc(O)cc(C=O)c1
Activity (HT-29 [1]): Active
Activity (HCT-116): Active
Activity (A549 [2]): Active
Activity (MCF7 [3]): Active

OC[C@@H]1[C@@H](Cc2ccc(O)cc2)CO[C@H]1c1ccc(O)cc1
Activity (HT-29 [1]): Active
Activity (HCT-116): inactive
Activity (A549 [2]): Active
Activity (MCF7 [3]): Active
Activity (HT-29 [4]): Dose-dependent effect
Activity (A549 [5]): Dose-dependent effect
Activity (MCF7 [6]): Dose-dependent effect

COc1cc([C@@H]2Oc3c(OC)cc(/C=C/C=O)cc3[C@H]2CO)ccc1O
Activity (HT-29 [1]): Active
Activity (HCT-116): Active
Activity (A549 [2]): Active
Activity (MCF7 [3]): Active
Activity (HT-29 [4]): Dose-dependent effect
Activity (A549 [5]): Dose-dependent effect
Activity (MCF7 [6]): Dose-dependent effect

Source: ChEMBL document CHEMBL1955786, “New antitumor compounds from Carya cathayensis” (Bioorg Med Chem Lett, 2012)
